{
  "source": "patent US9233095B2",
  "about": "“Small molecule RNase inhibitors and methods of use” (University of Rochester, priority 2011, dated 2016)",
  "key": {"S. aureus strain Smith": {"test_system": "S. aureus strain Smith", "test": "acute lethal model of infection", "type": "in vivo, CD-1 mice", "conditions": "for % Survival: 5 days, one value per experiment", "experimental": "Because RNPA1000 was not toxic during short- and only mildly toxic during extended-HepG2 exposure, it could serve as an appropriate tool to assess whether RnpA-inhibitory molecules are efficacious in a systemic mouse infection model. […] RNPA1000 was solubilized in 1:1 mixture of DMSO and PEG400; Vancomycin was prepared in water. Animals (5/dose group) were administered 16, 64, and 256 mg/kg or 0.25, 1, 4, and 16 mg/kg of RNPA1000 or Vancomycin, respectively, at 30 min post infection by subcutaneous injection (0.2 ml). The percent surviving animals receiving no treatment, a single dose of Vancomycin, or RnpA-inhibitor was recorded daily over the course of the study (5 days).\nPercent survival refers to a consensus of surviving animals following 5 days post-intraperitoneal S. aureus injection and RNPA1000 administration. The number in parentheses indicates the number of times the experiment was repeated. Each member of non-treated control mice expired within 24 hr bacterial inoculation (0 mg/kg). Vancomycin served as a positive control."}, "E. coli": {"test_system": "E. coli", "test": "CLSI broth microdilution MIC", "type": "cell-based, Escherichia coli", "source_text": "(§1) In some examples, compounds can be further assayed using the Mueller Hinton (MH) broth antibacterial assay as specified by the Clinical and Laboratory Standards Institute MIC broth microdilution protocol (see Methods for Dilution Antimicrobial Susceptibility Tests for Bacteria That Grow Aerobically; Approved Standard, In The Clinical and Laboratory Standards Institute (CLSI, formerly NCCLS), 7th ed., January 2006, 26 (2), M7-A7; see also Performance Standards for Antimicrobial Susceptibility Testing; Eighteenth Informational Supplement, In The Clinical and Laboratory Standards Institute (CLSI, formerly NCCLS), January 2008, 28 (1), M100-S18).\n(§2) With the exception of RN4220-derivatives, in vitro activities of RNPA1000 against bacteria were determined by the broth microdilution method according to the Clinical and Laboratory Standards Institute (CLSI) guidelines using cation adjusted Mueller-Hinton broth or MH broth supplemented with 5% lysed horse blood (for testing Streptotococcus spp.). Microtiter plates containing serial dilutions of RNPA1000 (0, 4, 8, 16, 32, 64, and 128 μg/ml) were inoculated with 10^5 colony forming units (CFU)/ml and incubated for 18 hr at 37° C. […] The MIC value for each S. aureus strain was determined to be the median score of replicate measurements (n=5). Wells containing concentrations of RNPA1000≧MIC were plated for minimal bactericidal measurement. Where possible, experiments with VRSA strains were performed in a laminar flow hood to minimize potential for equipment contamination. For RN4220 cells containing plasmid vector (pCN51), RnpA overproducing plasmid (pRNPA-S) or RnpA underproducing plasmid (pRNPA-A.S.) in vitro antimicrobial activity of RNPA1000 was performed by the microdilution method as described above, except that cells were grown in Tryptic Soy Broth medium supplemented with 2.5 μM CdCl2 and 0, 1, 2, 4, 8, 16, 32, 64, or 128 μg/ml RNPA1000. Time-kill assays were also performed to monitor the antimicrobial properties of RNPA1000 for S. aureus strain UAMS-1 in the absence and presence of 0.25, 0.5, 2, and 4 times the strain's MIC for oxacillin (1 μg/ml), rifampicin (0.5 μg/ml), vancomycin (2 μg/ml), or daptomycin (1 μg/ml). The indicated amount of RNPA1000 and/or commercial antibiotic were added to mid-exponential phase (2×10^8 cfu/ml) S. aureus strain UAMS-1 cells and incubated at 37° C. Aliquots were removed at 0, 2, 4, 8, and 24 hr post-antimicrobial challenge, serial diluted, and plated to enumerate resulting cfu/ml. All time-kill assays were repeated at least 3 times."}, "E. faecalis": {"test_system": "E. faecalis", "test": "CLSI broth microdilution MIC", "type": "cell-based, Enterococcus faecalis", "source_text": "as §1, §2"}, "A. baumannii": {"test_system": "A. baumannii", "test": "CLSI broth microdilution MIC", "type": "cell-based, Acinetobacter baumannii", "source_text": "as §1, §2"}, "[1]": {"test_system": "biofilm-associated S. aureus strain UAMS-1", "test": "in vitro catheter biofilm assay", "type": "cell-based", "experimental": "To determine this, in vitro biofilm assays were performed as described in Weiss et al., Antimicrob Agents Chemother, 53: 2475-2482 (2009). Briefly, 1 cm segments of 14-gauge fluorinated ethylene propylene Introcan Safety Catheters (B. Braun, Bethlehem, Pa.) were coated with human plasma and placed in individual wells of a 12-well microtiter plate containing 2 ml biofilm medium and S. aureus strain UAMS-1 at a final OD600 nm of 0.05. Following overnight incubation at 37° C. catheters were removed, rinsed in phosphate buffered saline (PBS), and transferred to fresh biofilm medium containing 0, 5, 10, or 20 times the S. aureus MIC for RNPA1000. Catheters exposed to each dose (n=3) were recovered daily over a period of 3 days, with the medium being replaced each day. After each recovery time point catheters were rinsed in PBS and adherent bacteria were enumerated by sonication and plating. Analysis of variance (ANOVA) of logarithmically-transformed bacterial count data was used to evaluate the effect of RNPA1000 exposure."}, "S. aureus (MSSA)": {"test_system": "S. aureus (MSSA)", "test": "CLSI broth microdilution MIC", "type": "cell-based, Staphylococcus aureus", "conditions": "Staphylococcus aureus, MSSA; strain UAMS-1", "source_text": "as §1, §2"}},
  "note": "Where “and” joins values, the source holds several entries; their conditions need not be identical. Equal entries are not always repeated. Where two headings read alike, the source gives them in different places.",
  "data": [
    {"molecule": "Cc1cc(/C=C(/C#N)C(=O)Nc2cccc(Br)c2)c(C)n1-c1ccc(C(=O)O)cc1", "note": "[RNPA1000]", "values": [
      {"measurement": "% Survival", "setting": "S. aureus strain Smith; RNPA1000 16 mg/kg s.c. 30 min post infection", "result": "20; 20(2) %"},
      {"measurement": "% Survival", "setting": "S. aureus strain Smith; RNPA1000 64 mg/kg s.c. 30 min post infection, 64 mg/kg", "result": 40, "unit": "%"},
      {"measurement": "% Survival", "setting": "S. aureus strain Smith; RNPA1000 256 mg/kg s.c. 30 min post infection, 256 mg/kg", "result": "60% and 40%"},
      {"measurement": "ED50", "setting": "S. aureus strain Smith; Staphylococcus aureus, in Mus musculus, sc, single dose, read-out: median effective dose (ED50)", "result": "64 to 256", "unit": "mg/kg"},
      {"measurement": "effect on growth", "setting": "E. coli", "result": "did not affect"},
      {"measurement": "MIC", "setting": "E. coli; E. coli Isolate 2", "result": ">64", "unit": "µg/mL"},
      {"measurement": "MIC", "setting": "E. coli; E. coli Isolate 3", "result": ">64", "unit": "µg/mL"},
      {"measurement": "MIC", "setting": "E. coli; E. coli Isolate 4", "result": ">64", "unit": "µg/mL"},
      {"measurement": "MIC", "setting": "E. coli; E. coli Isolate 5", "result": ">64", "unit": "µg/mL"},
      {"measurement": "MIC", "setting": "E. coli; Escherichia coli, E. coli Isolate 1, read-out: MIC", "result": "> 64", "unit": "µg/mL"},
      {"measurement": "antimicrobial activity in words", "setting": "E. faecalis", "result": "mild activity"},
      {"measurement": "MIC", "setting": "E. faecalis; E. faecalis Isolate 1", "result": 64, "unit": "µg/mL"},
      {"measurement": "MIC", "setting": "E. faecalis; E. faecalis Isolate 3", "result": 64, "unit": "µg/mL"},
      {"measurement": "MIC", "setting": "E. faecalis; E. faecalis Isolate 4", "result": 64, "unit": "µg/mL"},
      {"measurement": "MIC", "setting": "E. faecalis; E. faecalis Isolate 5", "result": 64, "unit": "µg/mL"},
      {"measurement": "MIC", "setting": "E. faecalis; Enterococcus faecalis, E. faecalis Isolate 2, read-out: MIC", "result": 64, "unit": "µg/mL"},
      {"measurement": "effect of efflux inhibitor reserpine on RNPA1000 susceptibility", "setting": "A. baumannii", "result": "no effect"},
      {"measurement": "effect on growth", "setting": "A. baumannii", "result": "did not affect"},
      {"measurement": "MIC", "setting": "A. baumannii; A. baumannii Isolate 2", "result": ">64", "unit": "µg/mL"},
      {"measurement": "MIC", "setting": "A. baumannii; A. baumannii Isolate 3", "result": ">64", "unit": "µg/mL"},
      {"measurement": "MIC", "setting": "A. baumannii; A. baumannii Isolate 4", "result": ">64", "unit": "µg/mL"},
      {"measurement": "MIC", "setting": "A. baumannii; A. baumannii Isolate 5", "result": ">64", "unit": "µg/mL"},
      {"measurement": "MIC", "setting": "A. baumannii; A. baumannii Isolate 5 + reserpine", "result": ">64", "unit": "µg/mL"},
      {"measurement": "MIC", "setting": "A. baumannii; Acinetobacter baumannii", "result": "> 64", "unit": "µg/mL"},
      {"measurement": "bacterial clearance", "setting": "[1]; 5, 10 or 20× MIC, up to 3 days", "result": "never achieved"},
      {"measurement": "decrease in bacterial burden", "setting": "[1]; 5× MIC for 24 hr", "result": 3, "unit": "log"},
      {"measurement": "maximal reduction in biofilm-associated bacteria", "setting": "[1]; up to 20× MIC, up to 3 days", "result": 5, "unit": "log"},
      {"measurement": "MIC", "setting": "S. aureus (MSSA)", "result": 26, "unit": "µg/mL"}
    ]}
  ]
}
